Test results as given in patent US20250049819A1, “METHODS FOR TREATING AND PREVENTING C. DIFFICILE INFECTION” (Paratek Pharmaceuticals, Inc., priority 2016, published 2025).
In brackets after ≈: the same amount, converted by molar mass. Like-named read-outs stand apart in the source and are kept apart here.

How the values were obtained:
Format in all cases: cell-based
[1] = test system: C. difficile strains (N = 27); assay: MIC by agar dilution against C. difficile clinical isolates; conditions: Clostridioides difficile, 27 isolates
Method: The activity of omadacycline was tested in vitro against 27 clinical isolates of C. difficile. […] The experiments were carried out using broth and agar microdilution methods according to Clinical and Laboratory Standards Institute (CLSI) guidelines. […] Each test was run in duplicate.

[2] = test system: C. difficile strain ATCC 43596; assay: MIC90 against the infection model strain; conditions: Clostridioides difficile, ATCC43596
[3] = test system: gut microflora populations; assay: In vitro human gut model, gut microflora populations (Example 3)
Description: An in vitro gut model was used to study the effects of omadacycline instillation on both normal microflora populations and C. difficile. This gut model has been validated against gut contents from sudden death victims and provides a very close simulation of bacterial activities and composition in different areas of the hindgut (Macfarlane et al., Microb. Ecol. 35, 180-7, 1998). The model consists of three vessels aligned in series, and top-fed with a complex growth medium. All three vessels are continuously stirred, anaerobically maintained at 37° C. and regulated to reflect in vivo differences, including pH, from proximal to distal colon. The three anaerobic fermentation vessels are maintained at increasing alkalinity (from pH 5.5±0.2 for vessel 1; pH 6.2±0.2 for vessel 2; and pH 6.8±0.2 for vessel 3). The increasing alkalinity in combination with the nutrient limited conditions are designed to simulate the human gut from the proximal to the distal colon. Inoculation with pooled human feces (from healthy elderly volunteers) is followed by a period of equilibration, during which bacterial populations respond to their environmental conditions and reach a steady state. At this stage, dietary ingredients, prebiotics, pathogens and/or antibiotics may be added, and the bacterial populations monitored. Specific components of the gut flora and relevant pathogens may be closely monitored and their behavior analyzed.
(§1) The gut model was inoculated with pooled fecal slurry (5 volunteers ≥60 years of age with no history of antibiotic therapy in the previous 3 months) and left for 2 weeks to allow the bacterial populations to achieve steady state. A single inoculum (˜10^7 cfu/mL) of C. difficile spores (PCR ribotype 027 strain 210) was added into vessel 1 of the gut model on day 14. One week later, on day 21, a second aliquot of C. difficile spores was added, and antibiotic instillation commenced. Omadacycline instillation (430 mg/L, once daily, for 7 days) commenced on day 21.
Gut microbiota bacterial populations and C. difficile total viable counts and spore counts were enumerated daily by culture on selective and non-selective agars. C. difficile populations were monitored in all three vessels, and all other bacterial groups (total obligate anaerobes, total facultative anaerobes, lactose fermenting enterobacteriaceae, enterococci, total clostridia, lactobacilli, bifidobacteria, B. fragilis group) were monitored in vessels 2 and 3 only. Vessel 3 is of most physiological relevance in terms of propensity to induce CDI. C. difficile total viable counts and spores counts were monitored using viable counting and a differential alcohol shock viable count on selective agars.

[4] = test system: gut microflora populations; assay: In vitro human gut model, gut microflora populations (Example 4)
Method: as §1, with “Model A (LHS) was exposed to moxifloxacin (43 mg/L, once daily, for 7 days) and Model B (RHS) was exposed to omadacycline” for “Omadacycline instillation”
Bacterial populations in the gut model were monitored using selective agars to count viable bacterial colonies. Populations were monitored every other day for the first 2 weeks until the steady state was reached, and daily thereafter. C. difficile populations were monitored in all three vessels, and all other bacterial groups (total obligate anaerobes, total facultative anaerobes, lactose fermenting Enterobacteriaceae, Enterococci, total Clostridia, Lactobacilli, Bifidobacteria and B. fragilis group) were monitored in vessels 2 and 3 only. Vessel 3, which represents the distal colon, is of most physiological relevance in terms of propensity to induce CDI. C. difficile total viable counts and spores counts were monitored using viable counting and a differential alcohol shock viable count on selective agars. From day 14 onwards C. difficile cytotoxin was measured using a quantitative VERO cell cytotoxicity assay. Samples of 1 mL each were centrifuged at 16,000×g for 15 minutes, and the supernatants were removed. Six 1:10 serial dilutions (to 10^−6) of culture supernatants from the gut model were prepared. Twenty microliters of the appropriate dilution was added to VERO cell monolayers and a further 20 μL of C. sordellii antitoxin (diluted 1:10 in sterile distilled water) was placed in the corresponding antitoxin row. Monolayers were examined after 24 and 48 hours of incubation in 5% CO2, with a positive result indicated by the presence of cell rounding with concurrent neutralization of the effect by C. sordellii antitoxin. Cytotoxin titers (relative units, RU) were an arbitrary log10 scale, and the cytotoxin titer is reported in the highest dilution with >70% cell rounding, i.e. 10^0=1 RU, 10^−1=2 RU, 10^−2=3 RU. Samples were taken daily from day 21 onwards to determine antimicrobial concentrations in the gut model vessels by a bioassay. Concentrations of moxifloxacin were determined using Isosensitest agar with Escherichia coli as the indicator organism. Concentrations of omadacyline were determined using Wilkins Chalgren agar with Kocuria rhizophila as the indicator organism.

[5] = vessels 2 and 3, 430 mg/L once daily for 7 days
[6] = vessels 2 and 3, 430 mg/L once daily for 7 days, fell below limit of detection
[7] = vessels 2 and 3, once daily for 7 days

Question: What does the source list for `CN(C)c1cc(CNCC(C)(C)C)c(O)c2c1C[C@H]1C[C@H]3[C@H](N(C)C)C(O)=C(C(N)=O)C(=O)[C@@]3(O)C(O)=C1C2=O` (stereo in doubt) [Omadacycline]?
Answer: MIC90 [1]: 0.12 µg/mL (≈ 0.216 µM); MIC90 ([2]; read-out: MIC90): 0.06 µg/mL (≈ 0.108 µM); MIC90 ([2]; replicate plate A, read-out: MIC90 Plate A): 0.06 µg/mL (≈ 0.108 µM); MIC90 ([2]; replicate plate B, read-out: MIC90 Plate B): 0.06 µg/mL (≈ 0.108 µM); time for all populations to return to steady state levels post antimicrobial exposure ([3]; after end of dosing): approximately 1 week; Enterobacteriacea populations [3, 5]: remained undisturbed; decrease in B. fragilis group [3, 5]: ~3 log10 cfu/mL; decrease in Enterococcus spp. [3, 5]: ~4 log10 cfu/mL; decrease in Lactobacillus spp. [3, 5]: ~2 log10 cfu/mL; decline in Bifidobacteria population [3, 6]: ~6 log10 cfu/mL; decline in Clostridia population [3, 6]: ~6 log10 cfu/mL; recovery of populations after end of dosing ([4]; all populations): returned to pre-antibiotic exposure levels by the end of the experiment; Enterobacteriaceae populations ([4]; particularly in vessel 2): increased during omadacycline exposure; decline in B. fragilis group [4, 7]: ~8 log10 cfu/mL; decline in Bifidobacteria [4, 7]: ~8 log10 cfu/mL; decline in Enterococcus spp. / Enterococci populations [4, 7]: ~6 log10 cfu/mL; decline in Lactobacilli [4, 7]: ~6 log10 cfu/mL; decrease in Clostridia [4, 7]: ~5 log10 cfu/mL; decrease in lactose fermenting Enterobacteriaceae [4, 7]: ~5 log10 cfu/mL; overall decline in total anaerobe populations [4, 7]: ~5 log10 cfu/mL; total facultative anaerobes [4, 7]: remained fairly stable throughout
